The values below come from patent US6500835B2, “Preventive or therapeutic drugs for fibrosis containing chymase inhibitors as the active ingredient” (Suntory Limited, priority 2000, dated 2002).

Counter-ions that a name gives are not always drawn.

As a reminder, the IC50 is the concentration that gives 50% inhibition. Read a low IC50 as greater potency in that assay.

One assay has as its target T1, Human heart chymase (Homo sapiens, UniProt P23946).
T1 construct: Human heart chymase was purified according to the method of Urata et al; from tissue; host or cells: human heart
T1 sequence (P23946 22-247): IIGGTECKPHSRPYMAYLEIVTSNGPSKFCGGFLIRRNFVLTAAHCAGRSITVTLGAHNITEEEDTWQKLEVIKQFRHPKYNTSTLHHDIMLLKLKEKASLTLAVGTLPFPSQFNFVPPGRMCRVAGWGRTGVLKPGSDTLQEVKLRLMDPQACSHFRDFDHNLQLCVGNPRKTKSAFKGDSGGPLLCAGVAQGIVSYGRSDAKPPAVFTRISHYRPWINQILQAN
Put plainly: Measurement of chymase inhibitory activity (Suc-Ala-Ala-Pro-Phe-MCA substrate). As to conditions: 30° C., 10 min preincubation. Format: biochemical. How it is done: Human heart chymase was purified according to the method of Urata et al. (J. Biol. Chem., 1990, 265, 22348). The inhibitory activity off the compound of the present invention was determined as follows. Purified enzyme was diluted with 0.1M tris HCl buffer (pH=7.5), 1M sodium chloride, and 0.01% Triton X-100 to obtain an enzyme solution having appropriate concentrations. Suc-Ala-Ala-Pro-Phe-MCA (Peptide Institute Inc.) was dissolved in 10 mM dimethyl sulfoxide (hereinafter referred to as DMSO) and diluted 20-fold with 0.1 M Tris-HCl buffer (pH 7.5) containing 1 M sodium chloride and 0.01% Triton X-100 to an appropriate concentration to prepare substrate solution.
5 μl of the test sample in DMSO was added to 75 μl of the enzyme solution and preincubated at 30° C. for 10 minutes. Then, 20 μl of the subs rate solution was added to the test sample-enzyme mixture, and incubated at 30° C. Ten minutes later, 50 μl of 30% acetic acid was added to stop the enzymatic reaction, and the amount of AMC formed was determined using a fluorophotometer. At the same time, 5 μl of DMSO in stead of the test sample was added and reacted simultaneously as a control. The inhibitory activity to human chymase was calculated based on the value of the control, and then the inhibition percentage and the 50% inhibition concentration (IC50) were determined.

In assay [1] the test system is bleomycin-induced pulmonary fibrosis in mice. Put plainly: Bleomycin-induced pulmonary fibrosis model: effect of chymase inhibitor on lung hydroxyproline. Conditions: five days a week over 2 weeks, bleomycin 0.08 mg. Format: in vivo, ICR mice. How it is done: (§1) Pulmonary fibrosis was induced by intratracheal administration of bleomycin (Nippon Kayaku) to 10 week old male ICR mice (Charles River Japan) under anesthesia (n=10). That is, bleomycin (0.04 mg or 0.08 mg) was suspended in 50 μl of saline and administered into the airways using a 100 μl syringe (made by Hamilton Co.) Two weeks after the administration of bleomycin, the lungs were excised and the amount of hydroxyproline, an indicator of tissue collagen, was assayed according to the method as described previously (Anal. Biochem. 19, 249, 1967). Further, the amount of hydroxyproline was expressed as an amount per lung. Further, mice similarly administered saline instead of bleomycin were used as a control (n=10).
Pulmonary fibrosis was induced in accordance with the method described in Example 5 (n=10) and the amount of hydroxyproline in pulmonary tissue was assayed in the same way as in Example 5 in order to investigate the effect of a chymase inhibitor (Compound 34) on pulmonary fibrosis. Further, the chymase inhibitor was suspended in saline containing 0.5% hydroxypropyl cellulose (HPC/saline) and administered intraperitoneally at a dose of 10 mg/kg or 50 mg/kg once a day for five days a week over 2 weeks, starting immediately after the bleomycin administration. […]

The next assay concerns chymase. Put plainly: Effects of chymase inhibitor on chymase activity in tissues of mice after intraperitoneal administration. As to conditions: ICR mice, 12 and 24 hours after administration. The class given is in vivo. How it is done:
(§2) A chymase inhibitor (Compound 18) was administered intraperitoneally in ICR mice (8 weeks old, n=3). After 12 hours and 24 hours, the chymase was extracted from the small intestines, tongues, back skins, front legs, and rear legs of the mice and the enzymatic activity thereof was determined. The chymase was extracted using a 10 mM phosphate buffer including 2M KCl and 0.1% polyethylene octylphenyl ether (Triton X-100) from the tissues. Chymase activity was determined, by measuring the rate of hydrolysis of synthesized substrate Suc-Phe-Pro-Phe-p-nitroanilide. Saline was administered in 24 hours in control groups.

The next assay has as its system Tsk mice. The assay can be described thus: Tsk mice, model for scleroderma: thickness of subcutaneous fibrous layer. As to conditions: 50 mg/kg/day i.p. once a day for 2 weeks, 13-week old Tsk mice. The class given is in vivo. How it is done: (§3) Collagen content, thickness of subcutaneous fibrous layer, mast cell number, chymase activity and chymase mRNA were measured in the skin of Tsk mice (Rheum. Dis. Clin. North Am. 16, 153, 1990), and compared with the control mice (pallid mice) at the ages of 5, 10, and 20 weeks (n=6). The collagen content was determined by measuring hydroxyproline, the marker for collagen, using HPLC, whereas fibrous layer thickness was determined by histological analysis with Azan staining followed by measuring the area of the fibrous layer using an image analysis system. The density of mast cells was calculated by counting the number of cells with stained granules by toluidine blue staining. Chymase was extracted from the skin according to the method described previously (Arch. Dermatol. Res. 290, 553, 1998), and the activity determined as described in Example 2. The mRNA for the skin chymase (MMCP-4) was measured only at 10 weeks of age by competitive RT-PCR method (Biotechniques 21, 268, 1996).
13-week old Tsk mice (n=5) were intra peritoneally administered a chymase inhibitor (Compound 18) in a dosage of 50 mg/kg/day once a day every day for 2 weeks. Five hours after the final administration, the degree of hypertrophy of the subcutaneous fibrous layer and the skin-chymase activity were measured and compared with the values of the group administered saline. […]

In the next assay the target is T2, skin chymase (Mus musculus, UniProt P21812).
T2 construct: Chymase was extracted from the skin according to the method described previously; from tissue; host or cells: skin of Tsk mice
T2 sequence (P21812 21-246): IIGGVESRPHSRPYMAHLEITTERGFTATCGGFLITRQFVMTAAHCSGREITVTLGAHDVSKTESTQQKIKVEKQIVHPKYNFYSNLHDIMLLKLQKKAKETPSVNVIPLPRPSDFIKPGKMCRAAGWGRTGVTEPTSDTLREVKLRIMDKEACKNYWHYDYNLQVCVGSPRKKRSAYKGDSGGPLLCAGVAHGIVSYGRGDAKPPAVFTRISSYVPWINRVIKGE
Put plainly: Tsk mice, model for scleroderma: skin chymase activity. Conditions: 50 mg/kg/day i.p. once a day for 2 weeks, 13-week old Tsk mice, 5 hours after final administration. The class given is in vivo. How it is done: as §2
as §3, with “Chymase was extracted from the skin according to the method described previously (Arch. Dermatol. Res. 290, 553, 1998), and the activity determined as described in Example 2. The mRNA for the skin chymase (MMCP-4) was measured only at 10 weeks of age by competitive RT-PCR method (Biotechniques 21, 268, 1996).” left out

Another assay has as its system ICR mice. Put plainly: Change in hydroxyproline content in lung after intratracheal bleomycin. The class given is in vivo. Conditions: 2 weeks after administration. How it is done: as §1
The test system of the next assay is pulmonary chymase. Put plainly: Change in pulmonary chymase activity after intratracheal bleomycin. Format: in vivo, mice. Conditions: bleomycin 0.08 mg intratracheal, 2 weeks after administration.

Consider `Nc1cc(S(=O)(=O)n2c(=O)[nH]c3cc(Cl)ccc3c2=O)ccc1Cl` [Compound 8, 3-(3-amino-4-chlorobenzenesulfonyl)-7-chloro-2,4(1H,3H)-quinazolinedione], for which the half-maximal inhibitory concentration (IC50) on Human heart chymase is 35 nM.

For `Nc1ccccc1S(=O)(=O)n1c(=O)[nH]c2cc(Cl)ccc2c1=O` [Compound 2, 3-(2-aminobenzenesulfonyl)-7-chloro-2.4(1H,3H)-quinazolinedione], half-maximal inhibition against Human heart chymase (IC50) required 140 nM.

On Human heart chymase, `Nc1cccc(S(=O)(=O)n2c(=O)[nH]c3cc(Cl)ccc3c2=O)c1` [Compound 12, 3-(3-aminobenzenesulfonyl)-7-chloro-2,4(1H,3H)-quinazolinedione] came in with a half-inhibitory concentration (IC50) of 440 nM.

At Human heart chymase, `COc1ccc(S(=O)(=O)n2c(=O)[nH]c3cc(Cl)ccc3c2=O)cc1NC(C)=O` [Compound 22] gave an IC50 of 300 nM.

Consider `CS(=O)(=O)O.Nc1cccc(S(=O)(=O)n2c(=O)[nH]c3cc(Cl)ccc3c2=O)c1` [Compound 34, 3-(3-aminobenzenesulfonyl)-7-chloro-2,4-(1H,3H)quinazolinedion methanesulfonic acid salt], for which, on Human heart chymase, the half-inhibitory concentration (IC50) was found to be 360 nM. Also, the “effect on the increase of the amount of hydroxyproline in the lung” value in assay [1] (10 mg/kg i.p. once a day) was “little effect”. The “rate of suppression of the increase of the amount of hydroxyproline in the lung” value in assay [1] (50 mg/kg i.p. once a day) is given as “about 46%”.

For the compound `Nc1cc(S(=O)(=O)n2c(=O)[nH]c3cc(Cl)ccc3c2=O)ccc1C(=O)[O-].[Na+]` [Compound 18, 4-[(7-chloro-2,4(1H,3H)-quinazolinedion-3-yl)sulfonyl]anthranilic acid monosodium salt], the IC50 at Human heart chymase was found to be 140 nM. Moreover, in the assay with chymase (small intestines), the “inhibition of chymase activity in the intestines compared with the group administered saline” value is “approximately 80%”. Also, the “inhibition of chymase activity in the tongue, back skin, and legs” value in the assay with chymase (tongue, back skin, legs) was “about 50%”. For the same compound, the “thickness of the subcutaneous fibrous layer, % of that for the group administered saline” value in the assay with Tsk mice is “about 60%”. Moreover, the “skin chymase activity, % of that of the group administered saline” value on skin chymase amounted to 57%.

On to `O=C(O)c1ccc(S(=O)(=O)n2c(=O)[nH]c3cc(Cl)ccc3c2=O)cc1O` [Compound 16, 4-[(7-chloro-2,4(1H,3H)-quinazolinedion-3-yl)sulfonyl]salicylic acid monosodium salt], for which the midpoint of inhibition against Human heart chymase, the IC50, lay at 840 nM.

`COc1ccc2c(=O)n(S(=O)(=O)c3ccc(C(=O)O)c(N)c3)c(=O)[nH]c2c1` [Compound 27, 4-[(7-methoxy-2,4(1H,3H)-quinazolinedion-3-yl)sulfonyl]anthranilic acid] showed a half-maximal inhibitory concentration (IC50) against Human heart chymase of 4000 nM.

With `O=C(O)c1cc(S(=O)(=O)n2c(=O)[nH]c3cc(Cl)ccc3c2=O)ccc1O` [Compound 21, 5-[(7-chloro-2,4(1H,3H)-quinazolinedion-3-yl)sulfonyl]salicylic acid], at Human heart chymase, the IC50 is 340 nM.

`Nc1cc(S(=O)(=O)n2c(=O)[nH]c3cc(Cl)ccc3c2=O)ccc1C(=O)O` [Compound 17, 4-[(7-chloro-2,4(1H,3H)-quinazolinedion-3-yl)sulfonyl]anthranilic acid]: the IC50 against Human heart chymase turned out to be 140 nM.

Take `Cc1ccc(S(=O)(=O)n2c(=O)[nH]c3cc(Cl)ccc3c2=O)cc1N` [Compound 10, 3-(3-amino-4-methylbenzenesulfonyl)-7-chloro-2,4(1H,3H)-quinazolinedione]: the midpoint of inhibition against Human heart chymase, the IC50, lay at 170 nM.

For bleomycin, the “hydroxyproline content in the lung as compared with the saline group” value in the assay with ICR mice (bleomycin 0.04 mg/mouse intratracheal) is 1.15 fold; in the assay with ICR mice (bleomycin 0.08 mg/mouse intratracheal), 1.25 fold. The “pulmonary chymase activity relative to the group administered saline” value in the assay on pulmonary chymase is “about 4.5 times”.

Compound `O=C(O)C1Oc2ccc(S(=O)(=O)n3c(=O)[nH]c4cc(Cl)ccc4c3=O)cc2NC1=O` (racemic) [Compound 29, (±)-6-[(7-chloro-2,4(1H,3H)-quinazolinedion-3-yl)sulfonyl]-3-oxo-1,4-benzoxazine-2-carboxylic acid] showed an IC50 against Human heart chymase of 1700 nM.

In the case of `O=c1[nH]c2cc(Cl)ccc2c(=O)n1S(=O)(=O)c1cccc(O)c1` [Compound 1, 7-chloro-3-(3-hydroxybenzenesulfonyl)-2,4(1H,3H)-quinazolinedione], the 50% inhibitory concentration (IC50) against Human heart chymase worked out at 360 nM.

At Human heart chymase, `COc1ccc(S(=O)(=O)n2c(=O)[nH]c3cc(Cl)ccc3c2=O)cc1NS(C)(=O)=O` [Compound 24, 7-chloro-3-(4-methoxy-3-methylsulfonylaminobenzenesulfonyl)-2,4(1H,3H)-quinazolinedione] gave an IC50 of 320 nM.

As for `Nc1cc(S(=O)(=O)n2c(=O)[nH]c3ccc(Cl)cc3c2=O)ccc1C(=O)O` [Compound 32, 4-[(6-chloro-2,4(1H,3H)-quinazolinedion-3-yl)sulfonyl]anthranilic acid], it took 1500 nM to reach half-maximal inhibition at Human heart chymase (IC50).

On Human heart chymase, `CC(C(=O)O)C(=O)Nc1cccc(S(=O)(=O)n2c(=O)[nH]c3cc(Cl)ccc3c2=O)c1` (stereo not shown) [Compound 13, 2-{3-[(7-chloro-2,4(1H,3H)-quinazolinedion-3-yl)sulfonyl]phenylaminocarbonyl}propionic acid] gave an IC50 of 300 nM.
